Source: ChEMBL document CHEMBL4304757, “Synthetic heterocyclic candidates as promising α-glucosidase inhibitors: An overview” (Eur J Med Chem, 2019)

Columns and labels:
[1] = molecular target: T1, Alpha glucosidase (Homo sapiens, UniProt O43451+P10253+P14410+Q2M2H8); assay: Inhibition of alpha-glucosidase (unknown origin) using p-nitrophenyl-alpha-d-glucopyranoside as substrate preincubated for 10 mins followed by substrate addition measured after 30 mins; format: protein assay
[2] = Inhibition of yeast alpha-glucosidase using p-nitrophenyl-alpha-d-glucopyranoside as substrate preincubated for 10 mins followed by substrate addition measured after 20 mins; set-up: species or system Saccharomyces cerevisiae
[3] = Inhibition of yeast alpha-glucosidase using p-nitrophenyl-alpha-d-glucopyranoside as substrate preincubated for 5 mins followed by substrate addition measured after 5 mins; set-up: species or system Saccharomyces cerevisiae
[4] = molecular target: T1, Alpha glucosidase; assay: Inhibition of alpha-glucosidase (unknown origin) using p-nitro phenyl glucopyranoside as substrate preincubated for 10 mins followed by substrate addition measured after 30 mins; format: protein assay
[5] = tested on: MDA-MB-231; assay: Cytotoxicity against human MDA-MB-231 cells assessed as reduction in cell viability at 100 uM relative to control; format: functional, cell-based
[6] = molecular target: T1, Alpha glucosidase; assay: Inhibition of alpha-glucosidase (unknown origin) using p-nitrophenyl-alpha-d-glucopyranoside as substrate preincubated for 5 mins followed by substrate addition measured after 30 mins; format: protein assay

Compound `CCOC(=O)C1=C(Nc2cccc([N+](=O)[O-])c2)C[C@@H](c2ccc(C)cc2)N(c2cccc([N+](=O)[O-])c2)[C@@H]1c1ccc(C)cc1` has an IC50 [1] of 2.3 to 29 µM.
Work on `Cc1ccsc1C1C(C#N)=C(N)Oc2c1c(=O)[nH]c1c2ccc2ccccc21` (centres undefined) yielded an IC50 [2] of 10 to 172 µM.
In the case of `O=C(NNC(=S)Nc1ccccc1Br)c1ccc(-c2nnc(-c3ccccc3Cl)o2)cc1`, the IC50 [1] is reported as 0.4 to 38 µM.
Work on `O=[N+]([O-])c1ccc2cc(-c3nnc(-c4cccc(O)c4)o3)oc2c1` yielded an IC50 [3] of 12 to 162 µM.
In the case of `Cc1cccc(NC(=S)NNC(=O)c2ccc(-c3nnc(-c4ccccc4Cl)o3)cc2)c1`, the IC50 [1] is reported as 0.4 to 38 µM.
In the case of `O=C(NNC(=S)Nc1cccc([N+](=O)[O-])c1)c1ccc(-c2nnc(-c3ccccc3Cl)o2)cc1`, the IC50 [1] is reported as 0.4 to 38 µM.
With `O=C(N/N=C/c1ccccc1F)c1nc(-c2cc3ccccc3oc2=O)cs1` the IC50 [4] was 6.2 to 81 µM.
Work on `COc1ccc(-c2nnc(-c3cc4ccc([N+](=O)[O-])cc4o3)o2)cc1O` yielded an IC50 [3] of 12 to 162 µM.
In the case of `O=C(N/N=C/c1cc(Cl)ccc1O)c1nc(-c2cc3ccccc3oc2=O)cs1`, the IC50 [4] is reported as 6.2 to 81 µM.
With `O=C(N/N=C/c1ccc(O)cc1)c1nc(-c2cc3ccccc3oc2=O)cs1` the IC50 [4] was 6.2 to 81 µM.
In the case of `N#CC1=C(N)Oc2c(c(=O)[nH]c3c2ccc2ccccc23)C1c1ccc([N+](=O)[O-])cc1` (centres undefined), the IC50 [2] is reported as 10 to 172 µM.
For `N#CC1=C(N)Oc2c(c(=O)[nH]c3c2ccc2ccccc23)C1c1ccc(F)cc1` (centres undefined), the IC50 [2] was 15 µM.
For `O=C(NNC(=S)Nc1ccc([N+](=O)[O-])cc1)c1ccc(-c2nnc(-c3ccccc3Cl)o2)cc1`, the IC50 [1] was 0.4 to 38 µM.
`O=C(N/N=C/c1cccc(Br)c1)c1nc(-c2cc3ccccc3oc2=O)cs1` showed an IC50 [4] of 6.2 to 81 µM.
With `N#CC1=C(N)Oc2c(c(=O)[nH]c3c2ccc2ccccc23)C1c1cccc(O)c1` (centres undefined) the IC50 [2] was 10 to 172 µM.
Compound `COc1ccc(-c2nnc(-c3cc4ccc([N+](=O)[O-])cc4o3)o2)c(O)c1` has an IC50 [3] of 12 to 162 µM.
`O=C(N/N=C/c1ccc(O)c(F)c1)c1nc(-c2cc3ccccc3oc2=O)cs1` gave an IC50 [4] of 6.2 to 81 µM.
With `O=C(NNC(=S)Nc1ccc(Cl)c(Cl)c1)c1ccc(-c2nnc(-c3ccccc3Cl)o2)cc1` the IC50 [1] was 0.4 to 38 µM.
`O=C(NNC(=S)Nc1ccccc1F)c1ccc(-c2nnc(-c3ccccc3Cl)o2)cc1` showed an IC50 [1] of 0.4 µM.
`COc1ccc(C2C(C#N)=C(N)Oc3c2c(=O)[nH]c2c3ccc3ccccc32)cc1OC` (centres undefined) showed an IC50 [2] of 10 to 172 µM.
Compound `O=[N+]([O-])c1ccc2cc(-c3nnc(-c4ccc(F)cc4)o3)oc2c1` has an IC50 [3] of 12 to 162 µM.
For `COc1ccc(C2C(C#N)=C(N)Oc3c2c(=O)[nH]c2c3ccc3ccccc32)cc1` (centres undefined), the IC50 [2] was 10 to 172 µM.
In the case of `CCOC(=O)C1=C(Nc2cccc(F)c2)C[C@@H](c2ccc(Cl)cc2)N(c2cccc(F)c2)[C@@H]1c1ccc(Cl)cc1`, the IC50 [1] is reported as 2.3 to 29 µM.
In the case of `O=C(N/N=C/c1cccc(F)c1)c1nc(-c2cc3ccccc3oc2=O)cs1`, the IC50 [4] is reported as 6.2 to 81 µM.
Compound `O=[N+]([O-])c1ccc2cc(-c3nnc(-c4ccc(O)c(O)c4)o3)oc2c1` has an IC50 [3] of 12 to 162 µM.
With `Cc1cccc(N2C(=O)/C(=C/c3ccc(F)cc3)S/C2=N\NC(=O)c2cc3ccccc3oc2=O)c1C` the Activity [5] was “>=76%” and the IC50 [6] was over 100 µM.
`O=C(N/N=C/c1ccc(C(F)(F)F)cc1)c1nc(-c2cc3ccccc3oc2=O)cs1` showed an IC50 [4] of 6.2 to 81 µM.
For `CC(C)(C)c1cc(/C=N/NC(=O)c2nc(-c3cc4ccccc4oc3=O)cs2)c(O)c(C(C)(C)C)c1`, the IC50 [4] was 6.2 to 81 µM.
For `N#CC1=C(N)Oc2c(c(=O)[nH]c3c2ccc2ccccc23)C1c1ccc(O)cc1` (centres undefined), the IC50 [2] was 10 to 172 µM.
`O=C(NNC(=S)Nc1ccc(F)cc1)c1ccc(-c2nnc(-c3ccccc3Cl)o2)cc1` showed an IC50 [1] of 0.4 to 38 µM.
With `N#CC1=C(N)Oc2c(c(=O)[nH]c3c2ccc2ccccc23)C1c1ccccc1` (centres undefined) the IC50 [2] was 10 to 172 µM.
Work on `O=C(N/N=C/c1cc(O)ccc1O)c1nc(-c2cc3ccccc3oc2=O)cs1` yielded an IC50 [4] of 6.2 to 81 µM.
With `COc1cccc(NC(=S)NNC(=O)c2ccc(-c3nnc(-c4ccccc4Cl)o3)cc2)c1` the IC50 [1] was 0.4 to 38 µM.
Work on `O=[N+]([O-])c1ccc2cc(-c3nnc(-c4ccc(O)cc4)o3)oc2c1` yielded an IC50 [3] of 12 to 162 µM.
Work on `COc1cc(C2C(C#N)=C(N)Oc3c2c(=O)[nH]c2c3ccc3ccccc32)ccc1O` (centres undefined) yielded an IC50 [2] of 10 to 172 µM.
For `Cc1ccc(N2C(=O)/C(=C/c3ccc(F)cc3)S/C2=N\NC(=O)c2cc3ccccc3oc2=O)c(C)c1`, the Activity [5] was “>=76%” and the IC50 [6] was 0.09 to 1.6 µM.
In the case of `COc1ccccc1NC(=S)NNC(=O)c1ccc(-c2nnc(-c3ccccc3Cl)o2)cc1`, the IC50 [1] is reported as 0.4 to 38 µM.
`Cc1ccc(N2C(=O)/C(=C/c3ccc(F)cc3)S/C2=N\NC(=O)c2cc3ccccc3oc2=O)cc1C` gave an IC50 ([5]; Homo sapiens, MDA-MB-231) of 0.09 to 1.6 µM and an IC50 [6] of 0.09 to 1.6 µM.
`CCOC(=O)C1=C(Nc2cccc(Cl)c2)C[C@@H](c2ccc(Cl)cc2)N(c2cccc(Cl)c2)[C@@H]1c1ccc(Cl)cc1` showed an IC50 [1] of 2.3 to 29 µM.
Work on `CC[C@]1(O)C[C@H]2CN(CCc3c([nH]c4ccccc34)[C@@](C(=O)OC)(c3cc4c(cc3OC)N(C=O)[C@H]3[C@@](O)(C(=O)OC)[C@H](OC(C)=O)[C@]5(CC)C=CCN6CC[C@]43[C@@H]65)C2)C1` [VINCRISTINE] yielded an Activity [5] of 74.5%.
`O=C(NNC(=S)Nc1ccccc1Cl)c1ccc(-c2nnc(-c3ccccc3Cl)o2)cc1` showed an IC50 [1] of 0.7 µM.
